Laboratory results published in patent EP0369881A1, “Compounds derived from the 3-keto-delta 4,9-19-nor steroid structure, and their use as medicaments” (ROUSSEL-UCLAF, priority 1988, dated 1990).

Assays:
[1] = target: T1, Récepteur glucocorticoïde du thymus de rat (Rattus norvegicus, UniProt P06536); assay: Relative binding affinity, competition with tritiated dexamethasone, rat thymus cytosol; conditions: reference hormone dexaméthasone
T1 construct: les thymus sont prélevés et homogénéisés à 0°C; from tissue; host or cells: thymus cytosol (105 000 g supernatant) of adrenalectomised male Sprague Dawley rats
T1 sequence (P06536 1-795): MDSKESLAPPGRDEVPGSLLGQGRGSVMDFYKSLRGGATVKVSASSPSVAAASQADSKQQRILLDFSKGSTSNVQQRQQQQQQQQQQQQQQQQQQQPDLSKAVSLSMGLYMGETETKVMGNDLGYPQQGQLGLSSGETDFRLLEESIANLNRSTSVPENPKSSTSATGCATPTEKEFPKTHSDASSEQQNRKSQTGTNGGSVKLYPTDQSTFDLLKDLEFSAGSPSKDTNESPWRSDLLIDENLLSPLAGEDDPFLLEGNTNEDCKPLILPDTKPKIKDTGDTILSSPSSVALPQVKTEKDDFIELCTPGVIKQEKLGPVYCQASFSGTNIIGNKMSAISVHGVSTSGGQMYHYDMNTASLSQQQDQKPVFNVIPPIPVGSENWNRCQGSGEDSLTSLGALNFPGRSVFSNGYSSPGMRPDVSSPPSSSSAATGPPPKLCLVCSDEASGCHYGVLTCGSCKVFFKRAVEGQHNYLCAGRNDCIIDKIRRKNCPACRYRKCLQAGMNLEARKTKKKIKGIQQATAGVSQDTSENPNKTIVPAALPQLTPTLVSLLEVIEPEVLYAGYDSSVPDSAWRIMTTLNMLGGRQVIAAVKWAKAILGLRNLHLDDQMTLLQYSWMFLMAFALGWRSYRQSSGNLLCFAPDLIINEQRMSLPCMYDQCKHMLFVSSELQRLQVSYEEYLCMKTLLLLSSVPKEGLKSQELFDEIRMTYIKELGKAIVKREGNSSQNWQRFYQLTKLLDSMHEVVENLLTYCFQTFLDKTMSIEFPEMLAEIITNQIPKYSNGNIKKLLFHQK
Procedure: Récepteur glucocorticoïde du thymus de rat :
Des rats mâles Sprague Dawley EOPS de 160 à 200 g sont surrénalectomisés. 4 à 8 jours après cette ablation, les animaux sont sacrifiés, et les thymus sont prélevés et homogénéisés à 0°C dans un tampon Tris 10mM, saccharose 0,25M, dithiothreitol 2mM, HCl pH 7,4, à l'aide d'un Potter polyté-trafluoroéthylène-verre (1 g de tissu pour 10 ml de TS). L'homogénat est ensuite ultracentrifugé (105 000 g x 90 mn) à 0°C. Des aliquotes du surnageant ainsi obtenu, sont incubées à 0°C pendant un temps (t) avec une concentration constante (T) de dexaméthasone tritiée en présence de concentrations croissantes (O - 2 500.10⁻⁹M) soit de dexaméthasone froide, soit du produit froid à tester. La concentration de la dexaméthasone tritiée liée (B) est ensuite mesurée dans chaque incubat par la technique d'adsorption au charbon dextran.
(§1) Calcul de l'affinité relative de liaison:
(§2) Le calcul de l'affinité relative de liaison (ARL) est identique pour tous les récepteurs.
(§3) On trace les 2 courbes suivantes : le pourcentage de l'hormone tritiée liée (B)/(T) [formula] en fonction du logarithme de la concentration de l'hormone de référence froide et (B)/(T) [formula] en en fonction du logarithme de la concentration du produit froid testé.
(§4) On détermine la droite d'équation I₅₀ = ( (B)/(T) [formula] max + (B)/(T) [formula] min)/2. (B)/(T) [formula] max = Pourcentage de l'hormone tritiée liée pour une incubation de cette hormone tritiée à la concentration (T). (B)/(T) [formula] min = Pourcentage de l'hormone tritiée liée pour une incubation de cette hormone tritiée à la concentration (T) en présence d'un grand excès d'hormone froide (2500.10⁻⁹M).
(§5) Les intersections de la droite I₅₀ et des courbes permettent d'évaluer les concentrations de l'hormone de référence froide (CH) et du produit froid testé (CX) qui inhibent de 50% la liaison de l'hormone tritiée sur le récepteur.
(§6) L'affinité relative de liaison (ARL) du produit testé est déterminée par l'équation [formula]

[2] = target: T2, Récepteur progestogène de l'utérus de lapine (Oryctolagus cuniculus, UniProt P06186); assay: Relative binding affinity, competition with tritiated Product R, rabbit uterus cytosol; conditions: reference hormone progestérone
T2 construct: les utérus sont prélevés, pesés et homogénéisés à 0°C; from tissue; host or cells: uterus cytosol (105 000 g supernatant) of estradiol-primed immature female rabbits
T2 sequence (P06186 1-930): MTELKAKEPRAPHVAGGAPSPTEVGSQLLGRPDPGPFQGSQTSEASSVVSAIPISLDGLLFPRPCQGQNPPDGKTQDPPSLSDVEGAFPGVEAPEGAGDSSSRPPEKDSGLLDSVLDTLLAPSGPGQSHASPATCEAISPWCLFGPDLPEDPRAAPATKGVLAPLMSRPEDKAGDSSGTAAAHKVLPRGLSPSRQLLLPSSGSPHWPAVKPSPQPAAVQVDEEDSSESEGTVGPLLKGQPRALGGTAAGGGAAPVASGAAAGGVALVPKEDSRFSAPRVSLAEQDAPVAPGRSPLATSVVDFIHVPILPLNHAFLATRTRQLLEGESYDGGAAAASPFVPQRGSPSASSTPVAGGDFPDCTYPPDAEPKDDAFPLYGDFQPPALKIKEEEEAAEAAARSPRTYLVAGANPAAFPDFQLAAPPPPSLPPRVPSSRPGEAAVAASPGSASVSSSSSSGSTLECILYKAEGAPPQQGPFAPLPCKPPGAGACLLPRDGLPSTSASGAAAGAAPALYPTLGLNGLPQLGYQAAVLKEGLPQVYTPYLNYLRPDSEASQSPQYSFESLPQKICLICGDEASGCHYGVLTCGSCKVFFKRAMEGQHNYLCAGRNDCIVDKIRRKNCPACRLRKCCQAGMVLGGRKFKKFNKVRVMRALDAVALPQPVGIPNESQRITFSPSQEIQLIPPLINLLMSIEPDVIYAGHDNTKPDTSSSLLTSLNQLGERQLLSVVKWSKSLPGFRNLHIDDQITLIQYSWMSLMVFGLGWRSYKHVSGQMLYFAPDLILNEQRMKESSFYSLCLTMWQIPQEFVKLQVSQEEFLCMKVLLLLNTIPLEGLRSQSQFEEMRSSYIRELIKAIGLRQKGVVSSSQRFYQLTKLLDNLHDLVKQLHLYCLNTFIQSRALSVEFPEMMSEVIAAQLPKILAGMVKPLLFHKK
Procedure: Récepteur progestogène de l'utérus de lapine :
Des lapines impubères d'environ 1 kg reçoivent une application cutanée de 25 microgrammes d'estradiol. 5 jours après ce traitement, les animaux sont sacrifiés, les utérus sont prélevés, pesés et homogénéisés à 0°C, à l'aide d'un Potter teflon-verre dans une solution tamponnée TS (Tris 10mM, saccharose 0,25 M, HCl pH 7,4) (1 g de tissu pour 50 ml de TS). L'homogénat est ensuite ultracentrifugé (105 000 g x 90 mn) à 0°C. Des aliquotes du surnageant ainsi obtenu, sont incubées à 0°C pendant un temps t, avec une concentration constante (T) de Produit R tritié (17,21-diméthyl 19-nor 4,9-pregnadiène-3,20-dione) en présence de concentrations croissantes (0 - 2 500. 10⁻⁹M) soit de R froid, soit de progestérone froide, soit du produit froid à tester. La concentration de R tritié lié (B) est ensuite mesurée dans chaque incubat par la technique d'adsorption au charbon dextran.
as §1, §2, §3, §4, §5, §6

affinité relative de liaison (ARL) Glucocorticoïde ([1]; incubation 1H at 0°C) | affinité relative de liaison (ARL) Glucocorticoïde ([1]; incubation 24H at 0°C) | affinité relative de liaison (ARL) Progestogène ([2]; incubation 2H at 0°C) | affinité relative de liaison (ARL) Progestogène ([2]; incubation 24H at 0°C) | SMILES
133 | 99 | 72 | 86 | CSc1ccc([C@H]2C[C@@]3(C)[C@@H](CC[C@@]3(O)C#CCO)[C@@H]3CCC4=CC(=O)CCC4=C32)cc1 [Exemple 1, 17béta-hydroxy 17alpha-(3-hydroxy 1-propynyl) 11béta-[4-(méthylthio)phényl] estra-4,9-dien-3-one]
156 | 139 | 70 | 351 | CSc1ccc([C@H]2C[C@@]3(C)[C@@H](CC[C@@]3(O)C#CCCl)[C@@H]3CCC4=CC(=O)CCC4=C32)cc1 [Exemple 4, 17alpha-(3-chloro 1-propynyl) 17béta-hydroxy 11béta-[4-(méthylthio)phényl] estra-4,9-dièn-3-one]
142 | 169 | 55 | 225 | CSc1ccc([C@H]2C[C@@]3(C)[C@@H](CC[C@@]3(O)C#CCF)[C@@H]3CCC4=CC(=O)CCC4=C32)cc1 [Exemple 3, 17alpha-(3-fluoro 1-propynyl) 17béta-hydroxy 11béta-[4-(méthylthio)phényl] estra-4,9-dièn-3-one]
